How the values were obtained:
Format in all cases: functional
Candida albicans [1] = assay: Antimicrobial activity against Candida albicans 54 at 30 ug after 18 hrs by agar diffusion method; conditions: Candida albicans, 54, 18 h; read-out: IZ
Escherichia coli [2] = assay: Antimicrobial activity against Escherichia coli 389 at 30 ug after 18 hrs by agar diffusion method; conditions: Escherichia coli, 389, 18 h; read-out: IZ
Staphylococcus aureus [3] = assay: Antimicrobial activity against methicillin sensitive Staphylococcus aureus 310 at 30 ug after 18 hrs by agar diffusion method; conditions: Staphylococcus aureus, 310, 18 h; read-out: IZ
Staphylococcus aureus [4] = assay: Antimicrobial activity against methicillin sensitive Staphylococcus aureus 375 at 30 ug after 18 hrs by agar diffusion method; conditions: Staphylococcus aureus, 375, 18 h; read-out: IZ
Escherichia coli [5] = assay: Antimicrobial activity against Escherichia coli 389 assessed as hazy zone of inhibition at 30 ug after 18 hrs by agar diffusion method; conditions: Escherichia coli, 389, 18 h; read-out: IZ
Enterococcus faecium [6] = assay: Antimicrobial activity against vancomycin-resistant Enterococcus faecium 379 at 30 ug after 18 hrs by agar diffusion method; conditions: Enterococcus faecium, 379, 18 h; read-out: IZ
Escherichia coli [7] = assay: Antimicrobial activity against Escherichia coli 389 at 5 ug after 18 hrs by agar diffusion method; conditions: Escherichia coli, 389, 18 h; read-out: IZ
Escherichia coli [8] = assay: Antimicrobial activity against Escherichia coli 442 at 5 ug after 18 hrs by agar diffusion method; conditions: Escherichia coli, 442, 18 h; read-out: IZ
Candida albicans [9] = assay: Antimicrobial activity against Candida albicans 54 at 5 ug after 18 hrs by agar diffusion method; conditions: Candida albicans, 54, 18 h; read-out: IZ
Leishmania = assay: Antileishmanial activity against Leishmania
Staphylococcus aureus [10] = assay: Antimicrobial activity against methicillin sensitive Staphylococcus aureus 375 assessed as hazy zone of inhibition at 1 unit after 18 hrs by agar diffusion method
Candida albicans [11] = assay: Antimicrobial activity against Candida albicans 54 at 1 unit after 18 hrs by agar diffusion method
Enterococcus faecium [12] = assay: Antimicrobial activity against vancomycin-resistant Enterococcus faecium 379 at 1 unit after 18 hrs by agar diffusion method
Staphylococcus aureus [13] = assay: Antimicrobial activity against methicillin sensitive Staphylococcus aureus 375 at 1 unit after 18 hrs by agar diffusion method
Staphylococcus aureus [14] = assay: Antimicrobial activity against methicillin sensitive Staphylococcus aureus 310 at 1 unit after 18 hrs by agar diffusion method
Escherichia coli [15] = assay: Antimicrobial activity against Escherichia coli 442 at 1 unit after 18 hrs by agar diffusion method
Escherichia coli [16] = assay: Antimicrobial activity against Escherichia coli 442 assessed as hazy zone of inhibition at 30 ug after 18 hrs by agar diffusion method; conditions: Escherichia coli, 442, 18 h; read-out: IZ
Escherichia coli [17] = assay: Antimicrobial activity against Escherichia coli 442 at 30 ug after 18 hrs by agar diffusion method; conditions: Escherichia coli, 442, 18 h; read-out: IZ
Enterococcus faecium [18] = assay: Antimicrobial activity against vancomycin-resistant Enterococcus faecium 379 assessed as hazy zone of inhibition at 200 ug after 18 hrs by agar diffusion method; conditions: Enterococcus faecium, 379, 18 h; read-out: IZ
Escherichia coli [19] = assay: Antimicrobial activity against Escherichia coli 389 at 200 ug after 18 hrs by agar diffusion method; conditions: Escherichia coli, 389, 18 h; read-out: IZ
Staphylococcus aureus [20] = assay: Antimicrobial activity against methicillin-resistant Staphylococcus aureus 310 assessed as hazy zone of inhibition at 200 ug after 18 hrs by agar diffusion method; conditions: Staphylococcus aureus, 310, 18 h; read-out: IZ
Odontaster validus = assay: Reduction of food intake in Odontaster validus assessed as rejection of food pellets after 72 hrs relative to control; set-up: scale not given: the % may be the effect or the level left
Candida albicans [21] = assay: Antimicrobial activity against Candida albicans 54 at 200 ug after 18 hrs by agar diffusion method; conditions: Candida albicans, 54, 18 h; read-out: IZ
Staphylococcus aureus [22] = assay: Antimicrobial activity against methicillin sensitive Staphylococcus aureus 375 assessed as very hazy zone of inhibition at 200 ug after 18 hrs by agar diffusion method; conditions: Staphylococcus aureus, 375, 18 h; read-out: IZ
Escherichia coli [23] = assay: Antimicrobial activity against Escherichia coli 442 at 200 ug after 18 hrs by agar diffusion method; conditions: Escherichia coli, 442, 18 h; read-out: IZ

Structure (SMILES): NC[C@H]1O[C@H](O[C@H]2[C@H](O)[C@@H](O[C@H]3O[C@H](CO)[C@@H](O)[C@H](N)[C@H]3O)[C@H](N)C[C@@H]2N)[C@H](O)[C@@H](O)[C@@H]1O [KANAMYCIN]
- zone of inhibition at 30 µg/disc (Candida albicans [1]): 0 mm
- zone of inhibition at 30 µg/disc (Escherichia coli [2]): 21 mm
- zone of inhibition at 30 µg/disc (Staphylococcus aureus [3]): 0 mm
- zone of inhibition at 30 µg/disc (Staphylococcus aureus [4]): 15 mm
- zone of inhibition at 30 µg/disc (Escherichia coli [5]): 37 mm
- zone of inhibition at 30 µg/disc (Enterococcus faecium [6]): 10 mm

Structure (SMILES): CO[C@H]1/C=C/O[C@@]2(C)Oc3c(C)c(O)c4c(O)c(c(/C=N/N5CCN(C)CC5)c(O)c4c3C2=O)NC(=O)/C(C)=C\C=C\[C@H](C)[C@H](O)[C@@H](C)[C@@H](O)[C@@H](C)[C@H](OC(C)=O)[C@@H]1C [RIFAMPIN]
- zone of inhibition at 5 µg/disc (Escherichia coli [7]): 20 mm
- zone of inhibition at 5 µg/disc (Escherichia coli [8]): 6 mm
- zone of inhibition at 5 µg/disc (Candida albicans [9]): 0 mm

Structure (SMILES): CN[C@H](CC(C)C)C(=O)N[C@H]1C(=O)N[C@@H](CC(N)=O)C(=O)N[C@H]2C(=O)N[C@H]3C(=O)N[C@H](C(=O)N[C@H](C(=O)O)c4cc(O)cc(O)c4-c4cc3ccc4O)[C@H](O)c3ccc(c(Cl)c3)Oc3cc2cc(c3O[C@@H]2O[C@H](CO)[C@@H](O)[C@H](O)[C@H]2O[C@H]2C[C@](C)(N)[C@H](O)[C@H](C)O2)Oc2ccc(cc2Cl)[C@H]1O [VANCOMYCIN]
- zone of inhibition at 30 µg/disc (Candida albicans [1]): 0 mm
- zone of inhibition at 30 µg/disc (Escherichia coli [2]): 17 mm
- zone of inhibition at 30 µg/disc (Staphylococcus aureus [3]): 15 mm
- zone of inhibition at 30 µg/disc (Staphylococcus aureus [4]): 19 mm
- zone of inhibition at 30 µg/disc (Escherichia coli [5]): 25 mm
- zone of inhibition at 30 µg/disc (Enterococcus faecium [6]): 0 mm

Structure (SMILES): C=C(C)[C@@](O)(CC)CC[C@@H](C)[C@H]1CC[C@H]2[C@@H]3CCC4=CC(=O)CC[C@]4(C)[C@H]3CC[C@]12C(=O)O [NORSELIC ACID D]
- Activity (Leishmania): 2 µM

Structure (SMILES): C=C(C)[C@@](CC)(CC[C@@H](C)[C@H]1CC[C@H]2[C@@H]3C=CC4=CC(=O)C=C[C@]4(C)[C@H]3CC[C@]12C(=O)O)OC(C)=O [NORSELIC ACID E]
- Activity (Leishmania): 3.6 µM

Structure (SMILES): C=C(C)[C@@](O)(CC)CC[C@@H](C)[C@H]1CC[C@H]2[C@@H]3CC[C@H]4CC(=O)C=C[C@]4(C)[C@H]3CC[C@]12C(=O)O [NORSELIC ACID B]
- Activity (Leishmania): 2.4 µM

Structure (SMILES): Cc1onc(-c2ccccc2)c1C(=O)N[C@@H]1C(=O)N2[C@@H]1SC(C)(C)[C@@H]2C(=O)O [OXACILLIN]
- inhibition zone (IZ) (Staphylococcus aureus [10]): 22 mm
- inhibition zone (IZ) (Candida albicans [11]): 0 mm
- inhibition zone (IZ) (Enterococcus faecium [12]): 0 mm
- inhibition zone (IZ) (Staphylococcus aureus [13]): 18 mm
- inhibition zone (IZ) (Staphylococcus aureus [14]): 0 mm
- zone of inhibition at 30 µg/disc (Escherichia coli [5]): 8 mm
- inhibition zone (IZ) (Escherichia coli [15]): 0 mm

Structure (SMILES): CO[C@@]1(NC(=O)Cc2cccs2)C(=O)N2C(C(=O)O)=C(COC(N)=O)CS[C@@H]21 [CEFOXITIN]
- zone of inhibition at 30 µg/disc (Escherichia coli [16]): 26 mm
- zone of inhibition at 30 µg/disc (Candida albicans [1]): 0 mm
- zone of inhibition at 30 µg/disc (Escherichia coli [17]): 18 mm
- zone of inhibition at 30 µg/disc (Escherichia coli [2]): 22 mm
- zone of inhibition at 30 µg/disc (Escherichia coli [5]): 26 mm

Structure (SMILES): C=C(CC[C@@H](C)[C@H]1CC[C@H]2[C@@H]3CCC4=CC(=O)C=C[C@]4(C)[C@H]3CC[C@]12C(=O)O)C(C)C [NORSELIC ACI C]
- Activity (Leishmania): 2.6 µM

Structure (SMILES): C=C(C)[C@@](O)(CC)CC[C@@H](C)[C@H]1CC[C@H]2[C@@H]3C=CC4=CC(=O)C=C[C@]4(C)[C@H]3CC[C@]12C(=O)O [NORSELIC ACID A]
- zone of inhibition at 200 µg/disc (Enterococcus faecium [18]): 8 mm
- zone of inhibition at 200 µg/disc (Escherichia coli [19]): 0 mm
- zone of inhibition at 200 µg/disc (Staphylococcus aureus [20]): 9 mm
- Activity (Odontaster validus): 35%
- zone of inhibition at 200 µg/disc (Candida albicans [21]): 8 mm
- zone of inhibition at 200 µg/disc (Staphylococcus aureus [22]): 8 mm
- Activity (Leishmania): 2.5 µM
- zone of inhibition at 200 µg/disc (Escherichia coli [23]): 0 mm

— ChEMBL document CHEMBL1221228, “Norselic acids A-E, highly oxidized anti-infective steroids that deter mesograzer predation, from the Antarctic sponge Crella sp” (2009)
